Data as given in PMC6749325, “Hybrids of Cinchona Alkaloids and Bile Acids as Antiparasitic Agents Against Trypanosoma cruzi” (Molecules, 2019).
Values after ≈ are worked out from the molar mass of the structure shown.

Test system: NRK cells
Assay: NRK cell IC50 estimation (cytotoxicity, crystal violet)
Assay type: cell-based
Conditions: 48 h incubation
Procedure: (§1) The NRK and Vero cell lines were routinely maintained in DMEM (Gibco) supplemented with 10% SFB (Natocor) and Penicillin/Streptomicin (100 Units/0.1mg/mL, Sigma) at 37 °C and 5% CO2 atmosphere. The trypomatigotes of T. cruzi strains CL Brener, Y, and RA were routinely maintained in Vero cells cultured in DMEM supplemented with 4% SFB and Penicillin/Streptomicin. The trypomastigotes of each strain were purified from infected Vero cells supernatants and used in the different assays.
1 × 10^5/mL NRK cells were grown overnight in a 96 multi-well plate. The culture medium was replaced by a culture medium containing increasing concentrations of hybrids, control drugs or vehicles, and cells incubated at 37 °C and 5% CO2 for 48 h. Next, cells were washed, fixed for 10 min with cold methanol (Sintorgan), and stained with violet crystal (Sigma 0.5% in methanol). After an exhaustive wash, cells were dried overnight. 10% acetic acid (Biopack) was added to each well, and the absorbance measured at 600 nm. Similarly, a standard curve was prepared (absorbance vs. increasing concentrations of NRK cells) to estimate the NRK IC50 using Graphpad Prism.

Row | SMILES | NRK Cells IC50
1 | C=CC1CN2CCC1CC2C(O)c1cc(CCC(C)C2CCC3C4CCC5CC(OC(C)=O)CCC5(C)C4CCC23C)nc2ccc(OC)cc12 (stereo not drawn) [Hybrid 4a] | 1.41 ± 0.13 µg/mL
2 | C=CC1CN2CCC1CC2C(O)c1cc(CCC(C)C2CCC3C4CCC5CC(OC(C)=O)CCC5(C)C4CCC23C)nc2ccc(OC)cc12 (stereo not drawn) [Hybrid 4c] | 16.53 ± 0.18 µg/mL
3 | C=CC1CN2CCC1CC2C(O)c1cc(CCC(C)C2CCC3C4C(OC(C)=O)CC5CC(OC(C)=O)CCC5(C)C4CCC23C)nc2ccc(OC)cc12 (stereo not drawn) [Hybrid 4d] | 3.30 ± 0.08 µg/mL
4 | C=CC1CN2CCC1CC2C(O)c1cc(CCC(C)C2CCC3C4CCC5CC(OC(C)=O)CCC5(C)C4CCC23C)nc2ccccc12 (stereo not drawn) [Hybrid 4g] | 12.30 ± 0.81 µg/mL
5 | C=CC1CN2CCC1CC2C(O)c1cc(CCC(C)C2CCC3C4C(OC(C)=O)CC5CC(OC(C)=O)CCC5(C)C4CCC23C)nc2ccccc12 (stereo not drawn) [Hybrid 4h] | 6.50 ± 0.28 µg/mL
6 | C=CC1CN2CCC1CC2C(O)c1cc(CCC(C)C2CCC3C4CCC5CC(O)CCC5(C)C4CCC23C)nc2ccc(OC)cc12 (stereo not drawn) [Hybrid 5a] | 15.30 ± 4.04 µg/mL
7 | C=CC1CN2CCC1CC2C(O)c1cc(CCC(C)C2CCC3C4C(O)CC5CC(O)CCC5(C)C4CCC23C)nc2ccc(OC)cc12 (stereo not drawn) [Hybrid 5b] | 5.10 ± 0.76 µg/mL
8 | C=CC1CN2CCC1CC2C(O)c1cc(CCC(C)C2CCC3C4C(O)CC5CC(O)CCC5(C)C4CCC23C)nc2ccc(OC)cc12 (stereo not drawn) [Hybrid 5d] | 1.59 ± 0.54 µg/mL

Test system: T. cruzi Y (DTU II) trypomastigotes
Assay: Trypomastigote IC50 estimation, Y strain
Assay type: cell-based, Trypanosoma cruzi
Conditions: 24 h incubation
Procedure: as §1
(§2) 2 × 10^6/mL trypomastigotes were incubated with different concentrations of the hybrids, control drug or vehicle, by triplicate at 37 °C and 5% CO2 for 24 h. Next, trypomastigotes were counted in a Neubauer chamber. The IC50 ± SD (n = 3) were estimated using the “Dose–Response” module in Graphpad Prism.

Row | SMILES | T. cruzi Y (DTU II) IC50
9 | C=CC1CN2CCC1CC2C(O)c1cc(CCC(C)C2CCC3C4C(OC(C)=O)CC5CC(OC(C)=O)CCC5(C)C4CCC23C)nc2ccccc12 (stereo not drawn) [Hybrid 4h] | ≥2.00 µg/mL

Same assay, conditions: Trypanosoma cruzi, 24 h, 24 h incubation

Row | SMILES | IC50
10 | C=CC1CN2CCC1CC2C(O)c1cc(CCC(C)C2CCC3C4CCC5CC(OC(C)=O)CCC5(C)C4CCC23C)nc2ccc(OC)cc12 (stereo not drawn) [Hybrid 4c] | ≥ 1 µg/mL
11 | C=CC1CN2CCC1CC2C(O)c1cc(CCC(C)C2CCC3C4CCC5CC(OC(C)=O)CCC5(C)C4CCC23C)nc2ccccc12 (stereo not drawn) [Hybrid 4g] | 3.05 ± 0.71 µg/mL (≈ 4.57 µM)

Test system: T. cruzi CL Brener trypomastigotes
Assay: Trypomastigote IC50 estimation, CL Brener strain
Assay type: cell-based, Trypanosoma cruzi
Conditions: IC50NRK/IC50 parasite, CL Brener trypomastigotes
Procedure: as §1, §2

Row | SMILES | Selectivity NRK/T. cruzi (SI)
12 | C=CC1CN2CCC1CC2C(O)c1cc(CCC(C)C2CCC3C4CCC5CC(OC(C)=O)CCC5(C)C4CCC23C)nc2ccc(OC)cc12 (stereo not drawn) [Hybrid 4a] | 2.20
13 | C=CC1CN2CCC1CC2C(O)c1cc(CCC(C)C2CCC3C4CCC5CC(OC(C)=O)CCC5(C)C4CCC23C)nc2ccc(OC)cc12 (stereo not drawn) [Hybrid 4c] | 15.30
14 | C=CC1CN2CCC1CC2C(O)c1cc(CCC(C)C2CCC3C4C(OC(C)=O)CC5CC(OC(C)=O)CCC5(C)C4CCC23C)nc2ccc(OC)cc12 (stereo not drawn) [Hybrid 4d] | 4.58
15 | C=CC1CN2CCC1CC2C(O)c1cc(CCC(C)C2CCC3C4CCC5CC(OC(C)=O)CCC5(C)C4CCC23C)nc2ccccc12 (stereo not drawn) [Hybrid 4g] | 9.46
16 | C=CC1CN2CCC1CC2C(O)c1cc(CCC(C)C2CCC3C4C(OC(C)=O)CC5CC(OC(C)=O)CCC5(C)C4CCC23C)nc2ccccc12 (stereo not drawn) [Hybrid 4h] | 9.28
17 | C=CC1CN2CCC1CC2C(O)c1cc(CCC(C)C2CCC3C4CCC5CC(O)CCC5(C)C4CCC23C)nc2ccc(OC)cc12 (stereo not drawn) [Hybrid 5a] | 4.12
18 | C=CC1CN2CCC1CC2C(O)c1cc(CCC(C)C2CCC3C4C(O)CC5CC(O)CCC5(C)C4CCC23C)nc2ccc(OC)cc12 (stereo not drawn) [Hybrid 5b] | 5.67
19 | C=CC1CN2CCC1CC2C(O)c1cc(CCC(C)C2CCC3C4C(O)CC5CC(O)CCC5(C)C4CCC23C)nc2ccc(OC)cc12 (stereo not drawn) [Hybrid 5d] | 3.98

Same assay, conditions: Trypanosoma cruzi, 24 h, trypomastigotes, 24 h incubation, IC50 ± SD (n = 3)

Row | SMILES | IC50
20 | C=CC1CN2CCC1CC2C(O)c1cc(CCC(C)C2CCC3C4CCC5CC(OC(C)=O)CCC5(C)C4CCC23C)nc2ccc(OC)cc12 (stereo not drawn) [Hybrid 4c] | 1.08 ± 0.23 µg/mL (≈ 1.55 µM)

Same assay, conditions: trypomastigotes, 24 h incubation, IC50 ± SD (n = 3)

Row | SMILES | T. cruzi CL Brener IC50
21 | C=CC1CN2CCC1CC2C(O)c1cc(CCC(C)C2CCC3C4CCC5CC(OC(C)=O)CCC5(C)C4CCC23C)nc2ccc(OC)cc12 (stereo not drawn) [Hybrid 4a] | 0.64 ± 0.15 µg/mL
22 | C=CC1CN2CCC1CC2C(O)c1cc(CCC(C)C2CCC3C4C(OC(C)=O)CC5CC(OC(C)=O)CCC5(C)C4CCC23C)nc2ccc(OC)cc12 (stereo not drawn) [Hybrid 4d] | 0.72 ± 0.07 µg/mL
23 | C=CC1CN2CCC1CC2C(O)c1cc(CCC(C)C2CCC3C4CCC5CC(OC(C)=O)CCC5(C)C4CCC23C)nc2ccccc12 (stereo not drawn) [Hybrid 4g] | 1.30 ± 0.01 µg/mL
24 | C=CC1CN2CCC1CC2C(O)c1cc(CCC(C)C2CCC3C4C(OC(C)=O)CC5CC(OC(C)=O)CCC5(C)C4CCC23C)nc2ccccc12 (stereo not drawn) [Hybrid 4h] | 0.70 ± 0.18 µg/mL
25 | C=CC1CN2CCC1CC2C(O)c1cc(CCC(C)C2CCC3C4CCC5CC(O)CCC5(C)C4CCC23C)nc2ccc(OC)cc12 (stereo not drawn) [Hybrid 5a] | 3.71 ± 0.13 µg/mL
26 | C=CC1CN2CCC1CC2C(O)c1cc(CCC(C)C2CCC3C4C(O)CC5CC(O)CCC5(C)C4CCC23C)nc2ccc(OC)cc12 (stereo not drawn) [Hybrid 5b] | 0.90 ± 0.10 µg/mL
27 | C=CC1CN2CCC1CC2C(O)c1cc(CCC(C)C2CCC3C4C(O)CC5CC(O)CCC5(C)C4CCC23C)nc2ccc(OC)cc12 (stereo not drawn) [Hybrid 5d] | 0.40 ± 0.05 µg/mL

Test system: T. cruzi RA (DTU VI) trypomastigotes
Assay: Trypomastigote IC50 estimation, RA strain
Assay type: cell-based, Trypanosoma cruzi
Conditions: 24 h incubation
Procedure: as §1, §2

Row | SMILES | T. cruzi RA (DTU VI) IC50
28 | C=CC1CN2CCC1CC2C(O)c1cc(CCC(C)C2CCC3C4C(OC(C)=O)CC5CC(OC(C)=O)CCC5(C)C4CCC23C)nc2ccccc12 (stereo not drawn) [Hybrid 4h] | 1.50 ± 0.50 µg/mL

Same assay, conditions: Trypanosoma cruzi, 24 h, 24 h incubation

Row | SMILES | IC50
29 | C=CC1CN2CCC1CC2C(O)c1cc(CCC(C)C2CCC3C4CCC5CC(OC(C)=O)CCC5(C)C4CCC23C)nc2ccccc12 (stereo not drawn) [Hybrid 4g] | 1.1 ± 0.21 µg/mL (≈ 1.65 µM)

Test system: T. brucei
Assay: not given
Set-up: method as in PMID 23816880
Conditions: compared with the commercial drug suramin; cited from earlier work

Row | SMILES | trypanocidal activity against T. brucei, IC50
30 | C=CC1CN2CCC1CC2C(O)c1cc(CCC(C)C2CCC3C4C(OC(C)=O)CC5CC(OC(C)=O)CCC5(C)C4CCC23C)nc2ccc(OC)cc12 (stereo not drawn) [Hybrid 4d] | in the same range as the commercial drug suramin
31 | C=CC1CN2CCC1CC2C(O)c1cc(CCC(C)C2CCC3C4C(OC(C)=O)CC5CC(OC(C)=O)CCC5(C)C4CCC23C)nc2ccccc12 (stereo not drawn) [Hybrid 4h] | in the same range as the commercial drug suramin
32 | C=CC1CN2CCC1CC2C(O)c1cc(CCC(C)C2CCC3C4C(O)CC5CC(O)CCC5(C)C4CCC23C)nc2ccc(OC)cc12 (stereo not drawn) [Hybrid 5b] | in the same range as the commercial drug suramin
33 | C=CC1CN2CCC1CC2C(O)c1cc(CCC(C)C2CCC3C4C(O)CC5CC(O)CCC5(C)C4CCC23C)nc2ccc(OC)cc12 (stereo not drawn) [Hybrid 5d] | in the same range as the commercial drug suramin
